Legend:
[1] = test system: Escherichia coli ATCC25922 standard strain; assay: urinary and renal bacterial culture of acute pyelonephritis rats; type: in vivo, SD rats; settings: norfloxacin 66.7 mg/kg, gavage, 10 days
Procedure: Ninety male SD rats having a weight of 180-220 g are selected, wherein: ten rats are selected as a sham-operated group (only being processed with ligation, without injecting with Escherichia coli), and the remaining rats are injected with Escherichia coli ATCC25922 standard strain having a concentration of 10^8/ml according to the method (disclosed in the Chinese Journal of Laboratory Animal Science, 1998, 8(1): pages 31-34) for preparing the acute pyelonephritis model rats.
After three days, urine of the rats is collected for bacterial culture, and the growth situation of the bacteria is observed. If the result is positive, the model rats are successively established; the unqualified rats are excluded, and the operation is made again for complementing the rats. The successively established model rats are randomly divided into the model group, the norfloxacin group (66.7 mg/kg), the LM49 solid dispersion low-dose group (with the drug concentration of 3 mg/kg), the LM49 solid dispersion medium-dose group (with the drug concentration of 9 mg/kg), the LM49 solid dispersion high-dose group (with the drug concentration of 27 mg/kg), the A8 solid dispersion low-dose group (with the drug concentration of 3 mg/kg), the A8 solid dispersion medium-dose group (with the drug concentration of 9 mg/kg), and the A8 solid dispersion high-dose group (with the drug concentration of 27 mg/kg).
The rats of the sham-operated group and the model group are administrated with the normal saline of same volume by gavage, and the rats of the other groups are respectively administrated with the drugs of the corresponding dose, once a day for consecutive ten days.
After finishing administration, urine of the rats of all groups is collected (for observing the bacterial growth situation). The abdominal aorta blood of the rats is drawn (for measuring the blood routine, CD4/CD8, urine creatinine and serum creatinine in the serum; and for measuring contents of IL-1α, IL-1β, IL-6, IL-10 and MCP-1 in the serum with the ELISA method). Two kidneys of each rat are cut (wherein a part is homogenated for bacterial culture, and the other part is used for observing the pathomorphology change).

DN rats = assay: type II diabetic nephropathy (DN) rat model (high-sugar high-fat diet + streptozocin); type: in vivo, SD (Sprague Dawley) rats; settings: DN rats, captopril 15 mg/kg, gavage, 6 weeks
Procedure: (§1) The solid dispersions are prepared through a solvent method, comprising steps of: respectively precisely weighing LM49, PVPK30 and tween80 with a weight ratio of 1:5:1, and A8, PVPK30 and tween80 with a weight ratio of 1:4:1; dissolving with appropriate absolute ethyl alcohol, continuously stirring, and uniformly mixing; placing on the water bath at 60° C., evaporating and removing the absolute ethyl alcohol, and obtaining a viscous material; placing in the freezer at −20° C., and freezing for 2 hours; taking out from the freezer, then placing in the vacuum drying oven, and drying for 24 hours; after becoming embrittlement, smashing and sieving with a sieve of 80 meshes, and then placing in the dryer for storage.
The healthy adult male SD rats (having a weight of 180-220 g) are fed with the high-sugar and high-fat diet for 4 weeks; the rats are fasting overnight; and streptozocin (STZ) of 40 mg/kg is intraperitoneally injected into the rats. The rats of normal control group are injected with the sodium citrate buffer of same volume; 72 hours later, the rats are fasting for 12 hours. […] During the administration period, the successfully established model rats are still fed with the high-sugar and high-fat diet, while the rats of the normal control group are fed with the normal diet.
After administration for 6 weeks, 6-hour urine of the rats is collected with the metabolism cage.
The rats are fasting overnight and anesthetized intraperitoneally, then the abdominal aorta blood thereof is drawn for measuring the related indexes. The two kidneys of each rat are washed with the normal saline; weights of the kidneys are recorded; and the kidney coefficient (weights of two kidneys/body weight) is calculated. The renal tissues (comprising the glomerulus and renal tubules) at the same part of the left kidney are cut lengthwise and immersed in the 10% neutral formalin for pathomorphology analysis, and the other parts of the left kidney are used for biochemical index measurement; the right kidney is used for mechanism research and stored in the freezer at −80° C.
After successfully establishing the model rats, expect the normal control group (ten rats), the remaining rats are randomly divided into eight groups, wherein each group has twelve rats. The eight groups are respectively the model group, the LM49 solid dispersion low-dose group (with the drug concentration of 3 mg/kg), the LM49 solid dispersion medium-dose group (with the drug concentration of 9 mg/kg), the LM49 solid dispersion high-dose group (with the drug concentration of 27 mg/kg), the A8 solid dispersion low-dose group (with the drug concentration of 3 mg/kg), the A8 solid dispersion medium-dose group (with the drug concentration of 9 mg/kg), the A8 solid dispersion high-dose group (with the drug concentration of 27 mg/kg), and the captopril control group (with the drug concentration of 15 mg/kg).
Administration Way: By Gavage.
The rats of the normal control group and the model group are administrated with the normal saline of 1.0 ml/100 g; the rats of the positive control group, the LM49 solid dispersion high-dose, medium-dose and low-dose groups and the A8 solid dispersion high-dose, medium-dose and low-dose groups are respectively administrated with the drugs of different concentrations, and the administration volume is 1.0 ml/100 g.
The solid dispersions are dissolved by the normal saline; and the rats of the positive control group are administrated with the 0.5% CMC-Na (sodium carboxymethyl cellulose) suspension.
The rats are administrated seven days a week, for totally six weeks.
The IBM SPSS Statistics 20 software is used for data processing, and the data is represented in x±s. The one-way analysis of variance (ANOVA) is adopted for comparison among the groups. According to the homogeneity test results of variance, if the variance is equal, the LSD (least significant difference) test is adopted; if the variance is unequal, the Dunnett's T3 test is adopted. […]

chronic nephritis rats = assay: chronic nephritis rat model (passive Heymann nephritis); type: in vivo, SD rats; settings: dexamethasone 0.1 mg/kg, gavage; for IL-1α / IL-1β / IL-6 / IL-10 / Scr: serum
Procedure: as §1
The passive Heymann nephritis is the classic model for researching the human chronic nephrosis. Thus, the present invention researches the effects of the two disclosed compounds on preventing the chronic nephritis with the model.
Ninety male SD rats having a weight of 180-220 g are selected, wherein: ten rats are selected as a blank group, and the remaining rats are used for preparing the rat Heymann nephritis models according to the method (disclosed in Journal of Proteomics, 2012, 75(3): pages 3866-3876). The successively established model rats are randomly divided into the model group, the positive control group (dexamethasone with a concentration of 0.1 mg/kg), the LM49 solid dispersion low-dose group (with the drug concentration of 3 mg/kg), the LM49 solid dispersion medium-dose group (with the drug concentration of 9 mg/kg), the LM49 solid dispersion high-dose group (with the drug concentration of 27 mg/kg), the A8 solid dispersion low-dose group (with the drug concentration of 3 mg/kg), the A8 solid dispersion medium-dose group (with the drug concentration of 9 mg/kg), and the A8 solid dispersion high-dose group (with the drug concentration of 27 mg/kg).
The rats of the blank group and the model group are administrated with the normal saline of same volume, and the rats of the other groups are respectively administrated with the drugs of the corresponding dose, by gavage, every day from model establishment for four weeks.
The blood of the rats of all groups is drawn at the second week and the fourth week from model establishment and 24-hour urine thereof is collected, for respectively measuring the contents of the urinary albumin, serum creatinine (Scr) in the serum, BUN, IL-1α, IL-1β, IL-6 and IL-10.
The data is represented in mean±(standard deviation) (x±s) and processed with the SPSS 19.0 statistical software. The one-way analysis of variance (ANOVA) is adopted for comparison among the groups, and then the LSD-Test is adopted for pairwise comparison. The differences of P<0.05 and P<0.01 are statistically significant.

For `CCn1cc(C(=O)O)c(=O)c2cc(F)c(N3CCNCC3)cc21` [Norfloxacin, norfloxacin, reference compound], the “Renal bacterial culture score” value ([1]; mean score, scale 1-4 of Table 10 (colony number <10, >10, >100, >1000)) was 1.2 ± 0.42^ΔΔ and the “Urinary bacterial A value (OD600 nm)” value ([1]; urine culture) was 0.254 ± 0.082^ΔΔ.
`C[C@H](CS)C(=O)N1CCC[C@H]1C(=O)O` [captopril, reference compound] was tested, and the BUN (DN rats) was 10.91 ± 1.15 mmol/L, the CREA (DN rats) was 52.15 ± 3.40 µmol/L and the Glycated hemoglobin (DN rats) was 8.88 ± 0.55%. For the same compound, the Urinary protein (DN rats; 6-hour urine) was 5.93 ± 1.59^□□ mg/6 h, the “mALB (microalbumin in urine)” value (DN rats; 6-hour urine) was 76.69 ± 7.69^□□ μg/6 h and the ICAM-1 (DN rats; renal tissues) was 246.36 ± 49.25 pg/mgprog. The IL-1β (DN rats; renal tissues) was 102.32 ± 22.70 pg/mgprog, the IL-6 (DN rats; renal tissues) was 107.50 ± 20.22^□□ pg/mgprog and the MDA (DN rats; renal tissues) was 1.04 ± 0.24 nmol/mgprog. For the same compound, the NF-κB (DN rats; renal tissues) was 174.49 ± 45.87^□□ pg/mgprog, the SOD (DN rats; renal tissues) was 4.42 ± 0.94 U/mgprog and the T-AOC (DN rats; renal tissues) was 1.48 ± 0.41 U/mgprog. The TGF-β1 (DN rats; renal tissues) was 36.72 ± 11.42^□□ pg/mgprot, the TNF-α (DN rats; renal tissues) was 292.79 ± 81.62^□ pg/mgprog and the VCAM-1 (DN rats; renal tissues) was 23.79 ± 3.50 pg/mgprog. For the same compound, the “Glucose (GLU)” value (DN rats; serum) was 16.66 ± 4.34^□□ mmol/L, the HDL-C (DN rats; serum) was 1.19 ± 0.35 mmol/L and the LDL-C (DN rats; serum) was 1.80 ± 0.27^□□ mmol/L. The TC (DN rats; serum) was 3.06 ± 0.43^□□ mmol/L, the TG (DN rats; serum) was 0.37 ± 0.09^□□ mmol/L and the UA (DN rats; serum) was 49.00 ± 3.24^□□ μmol/L. For the same compound, the Kidney coefficient (DN rats; weights of two kidneys/body weight) was 1.02 ± 0.06%.
With `C[C@@H]1C[C@H]2[C@@H]3CCC4=CC(=O)C=C[C@]4(C)[C@@]3(F)[C@@H](O)C[C@]2(C)[C@@]1(O)C(=O)CO` [Dexamethasone, dexamethasone, reference compound] the “24-hour urinary protein quantitation” value (chronic nephritis rats; Fourth week) was 19.99 ± 3.5^ΔΔ mg/24 h, the “24-hour urinary protein quantitation” value (chronic nephritis rats; Second week) was 20.87 ± 4.4^Δ mg/24 h and the IL-1α (chronic nephritis rats; Fourth week) was 9.33 ± 4.22^Δ pg/ml. The IL-1β (chronic nephritis rats; Fourth week) was 163.44 ± 59.31^Δ pg/ml, the IL-6 (chronic nephritis rats; Fourth week) was 61.31 ± 25.66^ΔΔ pg/ml and the IL-10 (chronic nephritis rats; Fourth week) was 29.44 ± 59.31^ΔΔ pg/ml. For the same compound, the Scr (chronic nephritis rats; Fourth week) was 44.32 ± 13.3 µmol/L, the IL-1α (chronic nephritis rats; Second week) was 10.47 ± 2.45^Δ pg/ml and the IL-1β (chronic nephritis rats; Second week) was 184.55 ± 57.22^Δ pg/ml. For the same compound, the IL-6 (chronic nephritis rats; Second week) was 87.01 ± 31.44^ΔΔ pg/ml, the IL-10 (chronic nephritis rats; Second week) was 51.09 ± 7.55 pg/mL and the Scr (chronic nephritis rats; Second week) was 46.22 ± 10.4 µmol/L.
